Legend:
Gal4-RORγ-LBD = biological target: T1, Gal4-RORγ-LBD (Homo sapiens, UniProt P51449); assay: Gal4-RORγ Luciferase Reporter Assay in HEK-293T Cells; format: cell-based; conditions: HEK-293 cells
T1 construct: expressed in transfected cells; host or cells: HEK-293 cells (pcDNA3.1neo plasmid)
T1 sequence (P51449 269-508 limits assumed): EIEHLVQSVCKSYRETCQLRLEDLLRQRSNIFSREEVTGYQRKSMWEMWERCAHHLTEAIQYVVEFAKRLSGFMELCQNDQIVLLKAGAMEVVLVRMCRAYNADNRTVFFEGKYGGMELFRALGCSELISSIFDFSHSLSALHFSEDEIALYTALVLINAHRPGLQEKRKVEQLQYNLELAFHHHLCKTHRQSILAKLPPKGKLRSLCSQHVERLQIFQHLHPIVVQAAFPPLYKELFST
Method in brief: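 HEK-293 cells were transiently co-transfected with Gal4-RORγ-LBD and pGL4.31 Gal4-luciferase, with ursolic acid added at 2 μM final. Compounds were incubated overnight at 37° C. in 0.2% DMSO and luminescence read with One-Glo. Max Response is the upper plateau of a 4-parameter logistic fit, with signal lacking ursolic acid or compound set to 100.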

RORγ-LBD = biological target: T2, RORγ-LBD (Homo sapiens, UniProt P51449); assay: RORγ-Ligand Binding Domain (LBD) TR-FRET Assay; format: biochemical;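 as to TR-FRET Assay Max Response: 665/615 nm ratio relative to signal without ursolic acid or compound set at 100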
T2 construct: made in house; host or cells: SF9 cells (baculovirus)
T2 sequence (P51449 269-508 limits assumed): T1 sequence (P51449 269-508 limits assumed)
Method in brief: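 His-tagged RORγ-LBD from SF9 baculovirus lysate, ~3 nM final, in 50 mM Tris pH 7.0, 50 mM KCl, 1 mM EDTA, 0.1 mM DTT, 0.01% BSA. Biotinylated SRC1 LXXLL peptide at 200 nM final with 2 μM ursolic acid; TR-FRET read-out, 1% DMSO final.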

[1] = luciferase reporter, with 2 μM ursolic acid

Row | EC50 (Gal4-RORγ-LBD; [1]) [µM] | EC50 (RORγ-LBD) [µM] | EC50 (Gal4-RORγ-LBD; 2 μM ursolic acid) [µM] | SMILES | Gal4-RORγ Assay Max Response (Gal4-RORγ-LBD; [1]) | TR-FRET Assay Max Response (RORγ-LBD) | Gal4-RORγ Assay Max Response (Gal4-RORγ-LBD; 2 μM ursolic acid)
1 | < 0.5 | < 0.5 |  | O=C(NC[C@H]1CN(S(=O)(=O)c2cccc(C(F)(F)F)c2)c2cc(-c3cc(F)ccc3F)ccc2O1)[C@@H]1C[C@@H]1F [Compound 30AM, (1S,2S)-N-(((S)-6-(2,5-difluoro-phenyl)-4-((3-(trifluoromethyl)-phenyl)sulfonyl)-3,4-dihydro-2H-benzo[b][1,4]oxazin-2-yl)methyl)-2-fluorocyclo-propane-1-carboxamide] | ** (The symbol “**” indicates a value in the range of greater than 90 to 150) | **** (The symbol “****” indicates a value greater than 200) | 
2 | < 0.5 | < 0.5 |  | O=C(NC[C@H]1CN(S(=O)(=O)c2cccc(C(F)(F)F)c2)c2cc(-c3cc(F)ccc3F)ccc2O1)C1(O)CC1 [Compound 30AG, (S)-N-((6-(2,5-difluorophenyl)-4-((3-(trifluoromethyl)phenyl)-sulfonyl)-3,4-dihydro-2H-benzo[b][1,4]oxazin-2-yl)methyl)-1-hydroxycyclo-propane-1-carboxamide] | ** (The symbol “**” indicates a value in the range of greater than 90 to 150) | *** (The symbol “***” indicates a value in the range of greater than 150 to 200) | 
3 | 0.5 to 5 | < 0.5 |  | O=C(O)CC[C@H]1CN(S(=O)(=O)c2cccc(C(F)(F)F)c2)c2cc(-c3cccc4ccnn34)ccc2O1 [Compound 4V, (S)-3-(6-(pyrazolo[1,5-a]-pyridin-7-yl)-4-((3-(trifluoro-methyl)-phenyl)sulfonyl)-3,4-dihydro-2H-benzo[b][1,4]-oxazin-2-yl)propanoic acid] | ** (The symbol “**” indicates a value in the range of greater than 90 to 150) | **** (The symbol “****” indicates a value greater than 200) | 
4 | > 10 | < 0.5 |  | O=C(O)CC[C@H]1CN(S(=O)(=O)c2cccc(C(F)(F)F)c2)c2cc(-c3ccc(F)c(C(F)(F)F)c3)ccc2O1 [Compound 2AF, (S)-3-(6-(4-fluoro-3-(trifluoromethyl)phenyl)-4-((3-(trifluoromethyl)phenyl)-sulfonyl)-3,4-dihydro-2H-benzo[b][1,4]oxazin-2-yl)propanoic acid] |  | **** (The symbol “****” indicates a value greater than 200) | 
5 | < 0.5 | < 0.5 |  | O=C(O)CC[C@H]1CN(S(=O)(=O)c2cccc(C(F)(F)F)c2)c2cc(-c3cccc(Cl)c3Cl)ccc2O1 [Compound 2AL, (S)-3-(6-(2,3-dichlorophenyl)-4-((3-(trifluoromethyl)phenyl)-sulfonyl)-3,4-dihydro-2H-benzo[b][1,4]oxazin-2-yl)propanoic acid] | *** (The symbol “***” indicates a value in the range of greater than 150 to 200) | **** (The symbol “****” indicates a value greater than 200) | 
6 | < 0.5 | < 0.5 |  | O=C(O)CC[C@H]1CN(S(=O)(=O)c2cccc(C(F)(F)F)c2)c2cc(-c3cc(Cl)ccc3F)ccc2O1 [Compound 2C, (S)-3-(6-(5-chloro-2-fluorophenyl)-4-((3-(trifluoromethyl)phenyl)-sulfonyl)-3,4-dihydro-2H-benzo[b][1,4]oxazin-2-yl)propanoic acid] | ** (The symbol “**” indicates a value in the range of greater than 90 to 150) | *** (The symbol “***” indicates a value in the range of greater than 150 to 200) | 
7 | < 0.5 | < 0.5 |  | COc1cc(-c2ccc3c(c2)N(S(=O)(=O)c2cccc(C(F)(F)F)c2)C[C@H](CCc2n[nH]c(=O)o2)O3)nc(N(C)C)c1 [Compound 28H, (S)-5-(2-(6-(6-(dimethylamino)-4-methoxypyridin-2-yl)-4-((3-(trifluoromethyl)phenyl)sulfonyl)-3,4-dihydro-2H-benzo[b][1,4]-oxazin-2-yl)ethyl)-1,3,4-oxadiazol-2(3H)-one] | * (The symbol “*” indicates a value in the range of 25 to 90) | **** (The symbol “****” indicates a value greater than 200) | 
8 |  | < 0.5 | < 0.5 | O=C(O)C1(C[C@H]2CN(S(=O)(=O)c3cccc(C(F)(F)F)c3)c3cc(-c4cc(F)ccc4F)ccc3O2)CCC1 [Compound 32BE, (S)-1-((6-(2,5-difluorophenyl)-4-((3-(trifluoromethyl)phenyl)-sulfonyl)-3,4-dihydro-2H-benzo[b][1,4]oxazin-2-yl)methyl)cyclobutane-1-carboxylic acid] |  | ** (The symbol “**” indicates a value in the range of greater than 90 to 150) | ** (The symbol “**” indicates a value in the range of greater than 90 to 150)
9 | < 0.5 | < 0.5 |  | O=C(O)CC[C@H]1CN(S(=O)(=O)c2cccc(C(F)(F)F)c2)c2cc(-c3ccccc3Cl)ccc2O1 [Compound 2A, (S)-3-(6-(2-chlorophenyl)-4-((3-(trifluoromethyl)phenyl)-sulfonyl)-3,4-dihydro-2H-benzo[b][1,4]oxazin-2-yl)propanoic acid] | ** (The symbol “**” indicates a value in the range of greater than 90 to 150) | *** (The symbol “***” indicates a value in the range of greater than 150 to 200) | 
10 |  | < 0.5 | < 0.5 | CC(C)(O)C(=O)NC[C@H]1CN(S(=O)(=O)c2cccc(C(F)(F)F)c2)c2cc(-c3cc(F)ccc3F)ccc2O1 [Compound 17, (S)—N-((6-(2,5-difluorophenyl)-4-((3-(trifluoromethyl)phenyl)sulfonyl)-3,4-dihydro-2H-benzo[b][1,4]oxazin-2-yl)methyl)-2-hydroxy-2-methylpropanamide] |  | **** (The symbol “****” indicates a value greater than 200) | ** (The symbol “**” indicates a value in the range of greater than 90 to 150)
11 |  | < 0.5 | < 0.5 | Cc1cc(C)cc(-c2ccc3c(c2)N(S(=O)(=O)c2cccc(C(F)(F)F)c2)C[C@H](CC2(C(=O)O)CCOCC2)O3)c1 [Compound 78G, (S)-4-((6-(3,5-dimethylphenyl)-4-((3-(trifluoromethyl)phenyl)-sulfonyl)-3,4-dihydro-2H-benzo[b][1,4]oxazin-2-yl)methyl)tetrahydro-2H-pyran-4-carboxylic acid] |  | ** (The symbol “**” indicates a value in the range of greater than 90 to 150) | ** (The symbol “**” indicates a value in the range of greater than 90 to 150)
12 |  | < 0.5 | < 0.5 | CC(=O)NC1(C[C@H]2CN(S(=O)(=O)c3cccc(C(F)(F)F)c3)c3cc(-c4cccc(C(F)(F)F)n4)ccc3O2)COC1 [Compound 51M, (S)-N-(3-((4-((3-(trifluoromethyl)-phenyl)sulfonyl)-6-(6-(trifluoromethyl)pyridin-2-yl)-3,4-dihydro-2H-benzo[b][1,4]oxazin-2-yl)methyl)oxetan-3-yl)acetamide] |  | *** (The symbol “***” indicates a value in the range of greater than 150 to 200) | ** (The symbol “**” indicates a value in the range of greater than 90 to 150)
13 |  | < 0.5 | < 0.5 | O=C(O)C1(C[C@H]2CN(S(=O)(=O)c3cccc(C(F)(F)F)c3)c3cc(-c4cccc(Cl)c4F)ccc3O2)CCOCC1 [Compound 78F, (S)-4-((6-(3-chloro-2-fluoro-phenyl)-4-((3-(trifluoromethyl)-phenyl)sulfonyl)-3,4-dihydro-2H-benzo[b][1,4]oxazin-2-yl)methyl)tetrahydro-2H-pyran-4-carboxylic acid] |  | ** (The symbol “**” indicates a value in the range of greater than 90 to 150) | ** (The symbol “**” indicates a value in the range of greater than 90 to 150)
14 | < 0.5 | < 0.5 |  | O=C(O)CC[C@H]1CN(S(=O)(=O)c2cccc(C(F)(F)F)c2)c2cc(-c3cccc(OC(F)(F)F)c3)ccc2O1 [Compound 2AP, (S)-3-(6-(3-(trifluoromethoxy)-phenyl)-4-((3-(trifluoromethyl)-phenyl)sulfonyl)-3,4-dihydro-2H-benzo[b][1,4]oxazin-2-yl)propanoic acid] | ** (The symbol “**” indicates a value in the range of greater than 90 to 150) | **** (The symbol “****” indicates a value greater than 200) | 
15 | < 0.5 | < 0.5 |  | C[C@@](O)(C(=O)NC[C@H]1CN(S(=O)(=O)c2cccc(C(F)(F)F)c2)c2cc(-c3cc(F)ccc3F)ccc2O1)C(F)(F)F [Compound 30V, (R)-N-(((S)-6-(2,5-difluoro-phenyl)-4-((3-(trifluoromethyl)-phenyl)sulfonyl)-3,4-dihydro-2H-benzo[b][1,4]oxazin-2-yl)methyl)-3,3,3-trifluoro-2-hydroxy-2-methylpropanamide] | * (The symbol “*” indicates a value in the range of 25 to 90) | **** (The symbol “****” indicates a value greater than 200) | 
